Measurements taken from patent US8129538B1, “Renin inhibitors” (Takeda Pharmaceutical Company Limited, priority 2007, dated 2012).

Target: T1, Recombinant human renin (Homo sapiens, UniProt P00797)
T1 construct: isolate the active form (residues 67-406); made in house
T1 sequence (P00797 67-406): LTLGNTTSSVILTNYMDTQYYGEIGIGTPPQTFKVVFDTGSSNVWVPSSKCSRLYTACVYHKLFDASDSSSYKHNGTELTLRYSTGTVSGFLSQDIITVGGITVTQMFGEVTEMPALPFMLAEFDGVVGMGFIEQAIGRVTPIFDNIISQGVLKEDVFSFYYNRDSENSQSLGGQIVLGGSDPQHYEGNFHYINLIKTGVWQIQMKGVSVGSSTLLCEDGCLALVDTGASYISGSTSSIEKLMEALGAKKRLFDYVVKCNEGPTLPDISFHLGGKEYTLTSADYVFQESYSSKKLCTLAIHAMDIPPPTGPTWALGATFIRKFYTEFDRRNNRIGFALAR
Assay: In vitro enzymatic activity assay of renin inhibitors (fluorogenic peptide substrate)
Format: biochemical
Settings: recombinant human renin 3 nM, substrate 1 μM, 37° C., pH 7.4, fluorescence; read-out: IC50 of Exemplified Compounds Against Renin
Excerpt: Test compounds in varying concentrations may be reacted with recombinant human renin in the presence of substrate, e.g., QXL520-γ-Abu-Ile-His-Pro-Phe-His-Leu-Val-Ile-His-Thr-Lys (HiLyteFluo488)-Arg-OH (Anaspec, San Jose, Calif.). The reaction can be followed kinetically using fluorescence (excitation λ=485 nm; emission λ=538 nm) Inhibition constants (IC50) may be calculated by non-linear curve fitting of the compound concentrations and fluorescence intensities to the standard IC50 equation.
Solutions of test compounds in varying concentrations (≦2 mM final concentration) are prepared in dimethyl sulfoxide (DMSO) and then diluted into assay buffer comprising 50 mM Hepes, 1 mM EDTA, 1 mM DTT, 0.1 mg/mL BSA, 0.01% Brij35, pH 7.4. Alternatively, the assay can be performed with a high BSA concentration, wherein the buffer contains an additional 2% BSA.
Recombinant human renin (3 nM final concentration) is added to the dilutions and pre-incubated with the compounds for 10 minutes at 37° C. As described in Examples A-C above, human renin can be obtained by expressing preprorenin (residue 1-406) in mammalian cells, treating the prorenin (residues 24-406) contained in the culture supernatant with trypsin, and isolate the active form (residues 67-406). After pre-incubation, the reaction is initiated with 1 μM of substrate QXL520-γ-Abu-Ile-His-Pro-Phe-His-Leu-Val-Ile-His-Thr-Lys (HiLyteFluo488)-Arg-OH (Anaspec, San Jose, Calif.). The final DMSO in the assay is 5%. The total volume of the reaction mixture is 20 μL, which can be placed on Greiner 384-well small volume plates.
Renin activity may be determined via fluorescence (excitation λ=485 nm; emission λ=538 nm), e.g., on a Molecular Devices SPECTROmax GEMINI XPS. The fluorescence
intensity is determined upon the addition of substrate and determined again after incubation at 37° C. for one hour. The fluorescence intensity of a blank (no inhibition) using vehicle alone is also determined. Renin activity is linearly proportional to the change in fluorescence observed (final-initial).
The percent inhibition of renin at a given compound concentration is defined as: 100%×[1−(Fcompound/Fblank)] where Fcompound is the observed fluorescence at a given concentration of test compound and Fblank is the observed fluorescence in the presence of vehicle alone.
The pIC50 value (negative log of the molar concentration of the compound that produces 50% inhibition) of a test compound is calculated by non-linear least squares curve fitting of the equation: Percent Inhibition=100%/(1+(10−pIC50/10 log [I])) to percent inhibition versus compound concentration. The 50% inhibitory concentration (IC50) of a test compound is calculated by raising 10 to the negative pIC50 (10-pIC50).

| SMILES | IC50 [nM] |
| --- | --- |
| COc1ccc(C2=C(C(=O)N(Cc3cccc(Cl)c3Cl)C3CC3)[C@@H](CO)NCC2)cc1 [Compound 13, (S)-N-cyclopropyl-N-(2,3-dichlorobenzyl)-2-(hydroxymethyl)-4-(4-methoxyphenyl)-1,2,5,6-tetrahydropyridine-3-carboxamide] | > 1000 |
| COCOC[C@H]1NCCC(c2ccc(OCCOc3c(Cl)cccc3Cl)cc2)=C1C(=O)N(Cc1cccc(Cl)c1Cl)C1CC1 [Compound 5, (S)-N-cyclopropyl-N-(2,3-dichlorobenzyl)-4-(4-(2-(2,6-dichlorophenoxy)ethoxy)phenyl)-2-((methoxymethoxy)methyl)-1,2,5,6-tetrahydropyridine-3-carboxamide] | < 100 |
| O=C(C1=C(c2ccc(OCCOc3c(Cl)cccc3Cl)cc2)CCN[C@@H]1CO)N(Cc1cccc(Cl)c1Cl)C1CC1 [Compound 6, (S)-N-cyclopropyl-N-(2,3-dichlorobenzyl)-4-(4-(2-(2,6-dichlorophenoxy)ethoxy)phenyl)-2-(hydroxymethyl)-1,2,5,6-tetrahydropyridine-3-carboxamide] | < 100 |
| COCOC[C@H]1NCCC(c2ccc(OCCOc3c(Cl)cc(C)cc3Cl)cc2)=C1C(=O)N(Cc1cccc(Cl)c1Cl)C1CC1 [Compound 10, (S)-N-cyclopropyl-4-(4-(2-(2,6-dichloro-4-methylphenoxy)ethoxy)phenyl)-N-(2,3-dichlorobenzyl)-2-((methoxymethoxy)methyl)-1,2,5,6-tetrahydropyridine-3-carboxamide] | < 100 |
| Cc1cccc(C)c1OCCOc1ccc(C2=C(C(=O)N(Cc3cccc(Cl)c3Cl)C3CC3)[C@@H](CO)NCC2)cc1 [Compound 7, (S)-N-cyclopropyl-N-(2,3-dichlorobenzyl)-4-(4-(2-(2,6-dimethylphenoxy)ethoxy)phenyl)-2-(hydroxymethyl)-1,2,5,6-tetrahydropyridine-3-carboxamide] | < 100 |
| COCOC[C@H]1NCCC(c2ccc(OCCOc3c(C)cccc3C)cc2)=C1C(=O)N(Cc1cccc(Cl)c1Cl)C1CC1 [Compound 8, (S)-N-cyclopropyl-N-(2,3-dichlorobenzyl)-4-(4-(2-(2,6-dimethylphenoxy)ethoxy)phenyl)-2-((methoxymethoxy)methyl)-1,2,5,6-tetrahydropyridine-3-carboxamide] | < 100 |
| O=C(C1=C(c2ccc(O)cc2)CCN[C@@H]1CO)N(Cc1cccc(Cl)c1Cl)C1CC1 [Compound 12, (S)-N-cyclopropyl-N-(2,3-dichlorobenzyl)-2-(hydroxymethyl)-4-(4-hydroxyphenyl)-1,2,5,6-tetrahydropyridine-3-carboxamide] | > 1000 |
| O=C(C1=C(c2ccc(OCCOc3ccccc3Cl)cc2)CCNC1CO)N(Cc1cccc(Cl)c1Cl)C1CC1 (stereo not shown) [Compound 2, 4-(4-(2-(2-chlorophenoxy)ethoxy)phenyl)-N-cyclopropyl-N-(2,3-dichlorobenzyl)-2-(hydroxymethyl)-1,2,5,6-tetrahydropyridine-3-carboxamide] | > 1000 |
| NC[C@H]1NCCC(c2ccc(OCCOc3c(Cl)cccc3Cl)cc2)=C1C(=O)N(Cc1cccc(Cl)c1Cl)C1CC1 [Compound 14, (S)-2-(aminomethyl)-N-cyclopropyl-N-(2,3-dichlorobenzyl)-4-(4-(2-(2,6-dichlorophenoxy)ethoxy)phenyl)-1,2,5,6-tetrahydropyridine-3-carboxamide] | 100 to 1000 |
| O=C(C1=C(c2ccc(OCCOc3c(F)ccc(F)c3Cl)cc2)CCN[C@@H]1CO)N(Cc1cccc(Cl)c1Cl)C1CC1 [Compound 11, (S)-4-(4-(2-(2-chloro-3,6-difluorophenoxy)ethoxy)phenyl)-N-cyclopropyl-N-(2,3-dichlorobenzyl)-2-(hydroxymethyl)-1,2,5,6-tetrahydropyridine-3-carboxamide] | < 100 |
| Cc1cc(Cl)c(OCCOc2ccc(C3=C(C(=O)N(Cc4cccc(Cl)c4Cl)C4CC4)[C@@H](CO)NCC3)cc2)c(Cl)c1 [Compound 9, (S)-N-cyclopropyl-4-(4-(2-(2,6-dichloro-4-methylphenoxy)ethoxy)phenyl)-N-(2,3-dichlorobenzyl)-2-(hydroxymethyl)-1,2,5,6-tetrahydropyridine-3-carboxamide] | < 100 |
| COCOC[C@H]1NCCC(c2cccc(-c3ccccc3)c2)=C1C(=O)N(Cc1cccc(Cl)c1Cl)C1CC1 [Compound 4, (S)-4-(biphenyl-3-yl)-N-cyclopropyl-N-(2,3-dichlorobenzyl)-2-((methoxymethoxy)methyl)-1,2,5,6-tetrahydropyridine-3-carboxamide] | 100 to 1000 |
| O=C(C1=C(c2cccc(-c3ccccc3)c2)CCNC1CO)N(Cc1cccc(Cl)c1Cl)C1CC1 (stereo not shown) [Compound 1, 4-(biphenyl-3-yl)-N-cyclopropyl-N-(2,3-dichlorobenzyl)-2-(hydroxymethyl)-1,2,5,6-tetrahydropyridine-3-carboxamide] | > 1000 |
